Measurements reported in US9221809B2 (MERCK SHARP & DOHME CORP., priority 2011, dated 2015).
Counter-ions that a name gives are not always drawn.

target: IRAK4 (Homo sapiens (Human), UniProt Q9NWZ3); assay: IRAK4 kinase activity, IMAP fluorescence polarization assay; type: biochemical; conditions: 100 μM ATP, 0.5 nM GST tagged IRAK4; read-out: IRAK4 IC50
Summary of the method: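 Fluorescence polarization (IMAP nanoparticle binding of phosphopeptide) reports activity after a 30 min, 25 °C reaction. Conditions: 100 μM ATP, 0.5 nM GST-IRAK4, 100 nM fluorescent peptide, 10 mM Tris pH 7.2, 1 mM MgCl2, 1 mM DTT, 0.01% Tween 20.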

Chain of IRAK4 (Q9NWZ3 whole entry): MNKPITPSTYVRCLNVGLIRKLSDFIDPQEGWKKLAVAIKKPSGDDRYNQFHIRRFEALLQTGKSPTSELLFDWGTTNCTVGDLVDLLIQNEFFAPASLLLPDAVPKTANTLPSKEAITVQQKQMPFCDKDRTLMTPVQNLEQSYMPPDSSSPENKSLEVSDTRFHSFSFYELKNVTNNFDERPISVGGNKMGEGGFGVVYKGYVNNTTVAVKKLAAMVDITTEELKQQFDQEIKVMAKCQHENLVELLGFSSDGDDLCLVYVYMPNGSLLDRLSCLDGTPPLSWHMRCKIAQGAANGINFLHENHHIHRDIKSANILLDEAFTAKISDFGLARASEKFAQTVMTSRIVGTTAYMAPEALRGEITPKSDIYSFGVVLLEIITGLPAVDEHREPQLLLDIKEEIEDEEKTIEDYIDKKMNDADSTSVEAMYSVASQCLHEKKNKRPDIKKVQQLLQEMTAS

Question: For `O=c1[nH]c(Nc2ccccc2)nc(N[C@@H]2C[C@H](CO)[C@@H](O)[C@H]2O)c1-c1nc2ccccc2s1` [Example 53, 5-(Benzo[d]thiazol-2-yl)-6-((1R,2S,3R,4R)-2,3-dihydroxy-4-(hydroxymethyl)cyclopentylamino)-2-(phenylamino)pyrimidin-4(3H)-one.HCl], which IC50 is on record?
Answer: Its IC50 is 327 nM.

Question: With `Cc1csc(-c2c(N[C@@H]3C[C@H](CO)[C@@H](O)[C@H]3O)nc(N3CCOCC3)[nH]c2=O)n1` [Example 32, 6-(((1R,2S,3R,4R)-2,3-Dihydroxy-4-(hydroxymethyl)cyclopentyl)amino)-5-(4-methylthiazol-2-yl)-2-morpholinopyrimidin-4(3H)-one.HCl] as the compound, how does the IC50 read?
Answer: The IC50 was 26.6 nM.

Question: Which IC50 does the source give for `O=C1NCCCC[C@H]1Nc1nc(N2CCOCC2)[nH]c(=O)c1-c1nc2ccccc2s1` [Example 91, (R)-3-(5-(Benzo[d]thiazol-2-yl)-2-morpholino-6-oxo-1,6-dihydropyrimidin-4-ylamino)azepan-2-one.HCl] here?
Answer: Its IC50 is 2430 nM.

Question: For `O=c1[nH]c(Nc2ccncc2)nc(N[C@@H]2C[C@H](CO)[C@@H](O)[C@H]2O)c1-c1nc2ccccc2s1` [Example 54, 5-(Benzo[d]thiazol-2-yl)-6-((1R,2S,3R,4R)-2,3-dihydroxy-4-(hydroxymethyl)cyclopentylamino)-2-(pyridin-4-ylamino)pyrimidin-4(3H)-one.HCl], which IC50 is on record?
Answer: The IC50 was 654 nM.

Question: With `NC(=O)c1ccc2sc(-c3c(N[C@@H]4CCCNC4)nc(N4CCOCC4)[nH]c3=O)nc2c1` [Example 347, (R)-2-(2-morpholino-6-oxo-4-(piperidin-3-ylamino)-1,6-dihydropyrimidin-5-yl)benzo[d]thiazole-5-carboxamide] as the compound, how does the IC50 read?
Answer: The IC50 was 10 nM.

Question: With `O=c1[nH]c(NC2CNC2)nc(N[C@@H]2C[C@H](CO)[C@@H](O)[C@H]2O)c1-c1nc2ccccc2s1` [Example 36, 2-(Azetidin-3-ylamino)-5-(benzo[d]thiazol-2-yl)-6-(((1R,2S,3R,4R)-2,3-dihydroxy-4-(hydroxymethyl)cyclopentyl)amino)pyrimidin-4(3H)-one.HCl] as the compound, how does the IC50 read?
Answer: Its IC50 is 656 nM.

Question: With `CC(C)(O)[C@H]1C[C@@H](Nc2nc(NC3CCC3)[nH]c(=O)c2-c2nc3ccccc3s2)[C@H](O)[C@@H]1O` [Example 45, 5-(Benzo[d]thiazol-2-yl)-2-(cyclobutylamino)-6-((1R,2S,3R,4S)-2,3-dihydroxy-4-(2-hydroxypropan-2-yl)cyclopentylamino)pyrimidin-4(3H)-one.HCl] as the compound, how does the IC50 read?
Answer: Its IC50 is 65 nM.

Question: For `O=c1[nH]c(N2CCCCC2)nc(N[C@@H]2C[C@H](CO)[C@@H](O)[C@H]2O)c1-c1ccc2ccccc2n1` [Example 19, 6-((1R,2S,3R,4R)-2,3-Dihydroxy-4-(hydroxymethyl)cyclopentylamino)-2-(piperidin-1-yl)-5-(quinolin-2-yl)pyrimidin-4(3H)-one.HCl], which IC50 is on record?
Answer: Its IC50 is 23 nM.

Question: `O=c1[nH]c(N2CCOCC2)nc(N[C@@H]2CCCNC2)c1-c1ncc(F)cn1` [Example 220, (R)-5-fluoro-2′-morpholino-6′-(piperidin-3-ylamino)-[2,5′-bipyrimidin]-4′(3′H)-one] was tested. Which IC50 did it give?
Answer: The IC50 was 220 nM.

same assay, conditions: 100 μM ATP; read-out: IC50

Question: `CC1CN(c2nc(N[C@@H]3CCCNC3)c(-c3nc4ccccc4s3)c(=O)[nH]2)CC(C)O1` (stereo partly drawn) [Example 294, 5-(benzo[d]thiazol-2-yl)-2-(2,6-dimethylmorpholino)-6-((R)-piperidin-3-ylamino)pyrimidiri-4{3H)-one] was tested. Which IC50 did it give?
Answer: The IC50 was 300 nM.

Question: How did the IC50 turn out when `O=c1[nH]c(N2CCC3(CCN(c4ccc(Cl)cc4)C3)C2)nc(N[C@@H]2CCCNC2)c1-c1nc2ccccc2s1` (stereo partly drawn) [Example 331, 5-(1,3-benzothiazol-2-yl)-2-[7-(4-chlorophenyl)-2,7-diazaspiro[4.4]nonan-2-yl]-6-[[(3R)-piperidin-3-yl]amino]-3,4-dihydropyrimidin-4-one trifluoroacetic acid] was run?
Answer: Its IC50 is 47 nM.

Question: With `O=c1[nH]c(NCCO)nc(N[C@@H]2CCCNC2)c1-c1nc2ccccc2s1` [Example 311, 5-(1,3-benzothiazol-2-yl)-2-[(2-hydroxyethyl)amino]-6-[[(3R)-piperidin-3-yl]amino]-3,4-dihydropyrimidin-4-one; trifluoroacetic acid] as the compound, how does the IC50 read?
Answer: Its IC50 is 450 nM.

Question: `CN(C)c1nc(N[C@@H]2CCCNC2)c(-c2nc3ccccc3s2)c(=O)[nH]1` [Example 289, (R)-5-(benzo[d]thiazol-2-yl)-2-(dimethylamino)-6-(piperidin-3-ylamino)pyrimidin-4(3H)-one] was tested. Which IC50 did it give?
Answer: The IC50 was 74 nM.

Question: `NC(=O)CNc1nc(N2CCOCC2)[nH]c(=O)c1-c1nc2ccccc2s1` [Example 249, 2-[[5-(1,3-benzothiazol-2-yl)-2-(morpholin-4-yl)-6-oxo-1,6-dihydropyrimidin-4-yl]amino]acetamide] was tested. Which IC50 did it give?
Answer: Its IC50 is 3900 nM.

Question: `O=c1[nH]c(N2CCOCC2)nc(N[C@@H]2CCCNC2)c1-c1csc(-c2ccccc2)n1` [Example 218, (R)-2-morpholino-5-(2-phenylthiazol-4-yl)-6-(piperidin-3-ylamino)pyrimidin-4(3H)-one] was tested. Which IC50 did it give?
Answer: The IC50 was 7 nM.

same assay, conditions: 100 μM ATP; read-out: IRAK4 IC50

Question: For `CC1(O)CCN(c2nc(N[C@@H]3CCCNC3)c(-c3ccc4ccccc4n3)c(=O)[nH]2)C1` (stereo partly drawn) [Example 181, 2-(3-hydroxy-3-methylpyrrolidin-1-yl)-6-((R)-piperidin-3-ylamino)-5-(quinolin-2-yl)pyrimidin-4(3H)-one], which IC50 is on record?
Answer: Its IC50 is 31 nM.

Question: With `COc1ccc(N2CC3CC2CN3c2nc(N[C@@H]3CCCNC3)c(-c3ccc4ccccc4n3)c(=O)[nH]2)cc1` (stereo partly drawn) [Example 195, 2-(5-(4-methoxyphenyl)-2,5-diazabicyclo[2.2.1]heptan-2-yl)-6-((R)-piperidin-3-ylamino)-5-(quinolin-2-yl)pyrimidin-4(3H)-one] as the compound, how does the IC50 read?
Answer: The IC50 was 757 nM.

same assay, conditions: unit inferred; 100 μM ATP; read-out: IRAK4 IC50

Question: For `O=c1[nH]c(N2CCC(c3cccnc3)CC2)nc(N[C@@H]2C[C@H](CO)[C@@H](O)[C@H]2O)c1-c1nc2ccccc2s1` [Example 70, 5-(benzo[d]thiazol-2-yl)-6-((1R,2S,3R,4R)-2,3-dihydroxy-4-(hydroxymethyl)cyclopentylamino)-2-(4-(pyridin-3-yl)piperidin-1-yl)pyrimidin-4(3H)-one], which IC50 is on record?
Answer: The IC50 was 13.3 nM.

Question: `O=c1[nH]c(N2CCC(n3ccnn3)CC2)nc(N[C@@H]2C[C@H](CO)[C@@H](O)[C@H]2O)c1-c1nc2ccccc2s1` [Example 67, 2-(4-(1H-1,2,3-triazol-1-yl)piperidin-1-yl)-5-(benzo[d]thiazol-2-yl)-6-((1R,2S,3R,4R)-2,3-dihydroxy-4-(hydroxymethyl)cyclopentylamino)pyrimidin-4(3H)-one] was tested. Which IC50 did it give?
Answer: Its IC50 is 11.8 nM.
